According to paper PMC6105845, “Nucleotide Prodrug Containing a Nonproteinogenic Amino Acid To Improve Oral Delivery of a Hepatitis C Virus Treatment” (Antimicrobial Agents and Chemotherapy, 2018):

Key:
CES2 = target: T1, CES2 (Homo sapiens, UniProt O00748); test: Ester cleavage by CES2; type: biochemical; conditions: GS-6620-containing diastereomeric mixture was used
T1 construct: purchased R&D Systems (Minneapolis, MN)
T1 sequence (O00748 27-559): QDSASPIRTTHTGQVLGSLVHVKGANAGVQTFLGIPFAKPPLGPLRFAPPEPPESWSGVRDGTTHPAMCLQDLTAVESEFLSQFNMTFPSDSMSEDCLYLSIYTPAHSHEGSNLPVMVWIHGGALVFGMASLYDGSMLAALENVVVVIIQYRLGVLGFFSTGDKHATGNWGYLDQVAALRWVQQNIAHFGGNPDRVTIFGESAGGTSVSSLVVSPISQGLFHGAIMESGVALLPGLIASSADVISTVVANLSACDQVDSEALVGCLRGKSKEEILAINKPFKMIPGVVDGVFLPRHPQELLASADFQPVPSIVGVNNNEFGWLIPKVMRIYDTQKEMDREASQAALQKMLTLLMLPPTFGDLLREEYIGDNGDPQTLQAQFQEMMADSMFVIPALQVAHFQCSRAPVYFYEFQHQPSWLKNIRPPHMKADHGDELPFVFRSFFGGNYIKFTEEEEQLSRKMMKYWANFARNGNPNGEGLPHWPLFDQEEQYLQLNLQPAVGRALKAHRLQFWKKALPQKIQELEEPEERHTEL
Procedure: (§1) Biochemical assays studying prodrug cleavage have been described previously ([8]). In brief, the cleavages of GS2 by CATA, CES1, CES2, and HINT1 were assessed in vitro. The reaction substrates and products were monitored over time by high-performance liquid chromatography (HPLC).

[1] = Metabolic stability in hepatic S9 fraction, monkey; type: in vitro ADME; conditions: monkey (cynomolgus); 2 μM
Procedure: Blood plasma and S9 stability was studied as described previously ([8]). In brief, the compounds were incubated at 2 μM in hamster, rat, dog, monkey, or human plasma samples for up to 4 h at 37°C. For S9 stability, the compounds were incubated at 2 μM in hamster, rat, dog, monkey, or human intestinal and hepatic S9 fractions for up to 90 min at 37°C in the presence of NADPH and uridine 5′-diphosphoglucuronic acid trisodium salt (UDPGA) (Sigma-Adrich). The samples were analyzed by liquid chromatography coupled to triple-quadrupole mass spectrometry (LC-MS/MS).
The data (analyte-to-internal standard peak area ratio) were plotted on a semilog scale and fitted using an exponential fit. The half-life (t1/2) was determined assuming first-order kinetics.

CatA = target: T2, CatA (Homo sapiens, UniProt P10619); test: Ester cleavage by CatA; type: biochemical; conditions: for Amidate ester cleavage, specific activity: CatA, GS-6620-containing diastereomeric mixture was used
T2 construct: purified from peripheral blood mononuclear cells (PBMCs) according to a previously published procedure; from tissue; host or cells: peripheral blood mononuclear cells (PBMCs)
T2 sequence (P10619 29-480): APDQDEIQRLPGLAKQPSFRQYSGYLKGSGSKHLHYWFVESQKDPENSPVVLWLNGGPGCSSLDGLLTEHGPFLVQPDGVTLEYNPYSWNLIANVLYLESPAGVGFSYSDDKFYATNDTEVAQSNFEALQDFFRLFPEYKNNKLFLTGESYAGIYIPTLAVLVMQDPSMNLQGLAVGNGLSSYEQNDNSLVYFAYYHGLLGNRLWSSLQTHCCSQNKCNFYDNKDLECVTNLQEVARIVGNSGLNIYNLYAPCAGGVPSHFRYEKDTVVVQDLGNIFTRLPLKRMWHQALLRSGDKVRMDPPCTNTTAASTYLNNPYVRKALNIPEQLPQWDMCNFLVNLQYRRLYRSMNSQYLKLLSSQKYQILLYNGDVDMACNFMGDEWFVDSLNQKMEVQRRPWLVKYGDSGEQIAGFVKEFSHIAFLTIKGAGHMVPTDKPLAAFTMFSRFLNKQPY
Procedure: as §1

[2] = Caco-2 bidirectional permeability; type: in vitro ADME; conditions: human; for Papp A→B / Papp B→A / efflux ratio: at thermodynamic solubility limit in fed simulated intestinal fluid; for efflux ratio: read-out: Efflux ratio B→A/A→B
Procedure: Caco-2 cells between passage 43 and 71 were grown to confluence for ≥21 days on 12- or 24-well polyethylene terephthalate plates (BD Biosciences). The bidirectional permeability of compounds was tested as described previously ([8]). In brief, the donor well contained Hanks' balanced salt solution (HBSS), 10 mM HEPES (pH 6.5), and 15 mM glucose. The receiver well contained HBSS (pH 7.4) and 1% bovine serum albumin (BSA). The cells were dosed on the apical (A) or basolateral (B) side to determine forward (A to B) and reverse (B to A) permeability. Media from the donor and receiver wells were analyzed by LC-MS/MS.

[3] = tested on: HCV GT1a, GT1b and GT2a replicons; test: HCV replicons GT1a, GT1b, GT2a in Huh-1C cells, summary across genotypes; type: cell-based, hepatitis C virus
Procedure: GT1a, GT1b, and GT2a are authentic subgenomic replicons of the indicated strain. Creation of these HCV replicons was reported previously ([7]).
RNA was transcribed in vitro using a MEGAscript […] kit (Ambion, Austin, TX) and transfected into Huh-Lunet and −1C cells using published methods ([21], [22]).
The EC50s, defined as the concentration at which there was a measured 50% decrease in HCV replicon level, were determined in replicon assay as previously described ([24]). Briefly, replicon cells were seeded into 96-well plates. Compounds were serially diluted in DMSO at 200× final concentrations and then added to the assay plate. Luciferase expression was quantified after 3 days of incubation using a commercial luciferase assay (Promega, Madison, WI). Data were analyzed using GraphPad Prism 6.0 (La Jolla, CA).
X represents log of compound concentration and Y represents replicon replication as the percentage of DMSO control. EC50s were calculated as an average from at least three independent experiments.

[4] = tested on: chimeric HCV replicons GT2b, GT3a, GT4a, GT5a, GT6a; test: Chimeric replicons with NS5b of GT2b, GT3a, GT4a, GT5a, GT6a in GT1b background, transiently transfected Huh-1C cells; type: cell-based, hepatitis C virus

Structure (SMILES)	3′-Ester cleavage, specific activity (CES2)	Amidate ester cleavage, specific activity (CES2)	Metabolic stability in hepatic S9 fraction, predicted hepatic extraction [1]	Amidate ester cleavage, specific activity (CatA)	Papp A→B [2]	Papp B→A [2]	efflux ratio [2]	potency relative to the fast-eluting isomer (more potent) ([3]; GT1a, 1b, 2a, Huh-1C)	activity relative to GS-6620, average across the three genotypes ([3]; Huh-1C cells)	CatA activity lower than toward GS-6620-containing diastereomeric mixture (CatA; isopropyl ester cleavage)	Papp A→B at 10 μM ([2]; tested at 10 μM)	Papp B→A at 10 μM ([2]; tested at 10 μM)	EC50 ([4]; Hepatitis C virus, read-out: potency)	relative potency to GS-6620 ([4]; chimeric replicons GT2b-GT6a, Huh-1C)
CC(C)OC(=O)[C@H](C)N[P@](=O)(OC[C@H]1O[C@@](C#N)(c2ccc3c(N)ncnn23)[C@](C)(O)[C@@H]1OC(=O)C(C)C)Oc1ccccc1 [GS-6620, reference compound]	60.1 pmol/min/µg	Stable	95%	4,163 pmol/min · μg	1.8 ×10⁻⁶ cm/s	11 ×10⁻⁶ cm/s	5.8	–	–	–	–	–	–	–
CC(C)OC(=O)C(C)(C)N[P@](=O)(OC[C@H]1O[C@@](C#N)(c2ccc3c(N)ncnn23)[C@](C)(O)[C@@H]1O)Oc1ccccc1 [GS2]	–	Stable	91%	385 pmol/min/µg	2.6 ×10⁻⁶ cm/s	6.7 ×10⁻⁶ cm/s	2.5	approximately 4 fold	≤ 3 fold	11 fold	0.4 ×10⁻⁶ cm/s	9.3 ×10⁻⁶ cm/s	91 to 158 nM	≤ 2 fold
